Tests used:
Type in all cases: in vivo
[1] = tested on: transplanted Oryza sativa; assay: Test Example 1: effect on crop, application before weed generation in submerged conditions; conditions: Application herbicide amount 320 g/ha; Seventeenth Table
Method in brief: (§1)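 Rating, on a six-step scale from almost no effect (0) to almost completely withered (5), was made three weeks after pre-emergence treatment. Treatment was surface application to flooded pots at g/ha rates, with plants kept at 25° C. to 30° C.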

Galium spurium = assay: Test Example 4: herbicidal effect by application to foliage (diluvial soil, plastic box); conditions: for Q (Galium spurium) herbicidal effect: application to foliage, application herbicide amount 320 g/ha; for Q: Application herbicide amount 320 g/ha
Method in brief: (§2)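 Emulsion-formulated compound, diluted to a predetermined g/ha dose, applied by small sprayer to leaves and stems of 14-day-old seedlings grown in sterilized diluvial soil. Effect rated on 0–5 herbicidal-ratio scale three weeks on.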

Apera spica-venti. = assay: as above; conditions: for L (Apera spica-venti.) herbicidal effect: application to foliage, application herbicide amount 320 g/ha; for L: Application herbicide amount 320 g/ha
Method in brief: as §2

Chenopodium album = assay: as above; conditions: for O (Chenopodium album) herbicidal effect: application to foliage, application herbicide amount 320 g/ha; for O: Application herbicide amount 320 g/ha
Method in brief: as §2

Veronica persica = assay: as above; conditions: for R (Veronica persica) herbicidal effect: application to foliage, application herbicide amount 320 g/ha; for R: Application herbicide amount 320 g/ha
Method in brief: as §2

Avena fatua = assay: as above; conditions: for I (Avena fatua) herbicidal effect: application to foliage, application herbicide amount 320 g/ha; for I: Application herbicide amount 320 g/ha
Method in brief: as §2

Setaria viridis = assay: as above; conditions: for G (Setaria viridis) herbicidal effect: application to foliage, application herbicide amount 320 g/ha; for G: Application herbicide amount 320 g/ha
Method in brief: as §2

Digitaria ciliaris = assay: as above; conditions: for F (Digitaria ciliaris) herbicidal effect: application to foliage, application herbicide amount 320 g/ha; for F: Application herbicide amount 320 g/ha
Method in brief: as §2

[2] = tested on: Echinochloa crus-galli var. crus-galli; assay: as above; conditions: for H (Echinochloa crus-galli var. crus-galli) herbicidal effect: application to foliage, application herbicide amount 320 g/ha; for H: Application herbicide amount 320 g/ha
Method in brief: as §2

Alopecurus myosuroides = assay: as above; conditions: for J (Alopecurus myosuroides) herbicidal effect: application to foliage, application herbicide amount 320 g/ha; for J: Application herbicide amount 320 g/ha
Method in brief: as §2

Lolium multiflorum Lam. = assay: as above; conditions: for K (Lolium multiflorum Lam.) herbicidal effect: application to foliage, application herbicide amount 320 g/ha; for K: Application herbicide amount 320 g/ha
Method in brief: as §2

Abutilon theophrasti = assay: as above; conditions: for M (Abutilon theophrasti) herbicidal effect: application to foliage, application herbicide amount 320 g/ha; for M: Application herbicide amount 320 g/ha
Method in brief: as §2

Scirpus juncoides = assay: Test Example 1: herbicidal activity, application before weed generation in submerged conditions; conditions: Application herbicide amount 320 g/ha; Seventeenth Table
Method in brief: as §1

Monochoria vaginalis = assay: as above; conditions: Application herbicide amount 320 g/ha; Seventeenth Table
Method in brief: as §1

[3] = tested on: Echinochloa oryzacola Vasing.; assay: as above; conditions: Application herbicide amount 320 g/ha; Seventeenth Table
Method in brief: as §1

Brassica campestris L. = assay: Test Example 4: effect on crop by application to foliage (diluvial soil, plastic box); conditions: for g (Brassica campestris L.) effect on crop: application to foliage, application herbicide amount 320 g/ha; for g: Application herbicide amount 320 g/ha, effect on crop
Method in brief: as §2

Glycine max = assay: as above; conditions: for c (Glycine max) effect on crop: application to foliage, application herbicide amount 320 g/ha; for c: Application herbicide amount 320 g/ha, effect on crop
Method in brief: as §2

Zea mays = assay: as above; conditions: for b (Zea mays) effect on crop: application to foliage, application herbicide amount 320 g/ha; for b: Application herbicide amount 320 g/ha, effect on crop
Method in brief: as §2

Triticum aestivum = assay: as above; conditions: for e (Triticum aestivum) effect on crop: application to foliage, application herbicide amount 320 g/ha; for e: Application herbicide amount 320 g/ha, effect on crop
Method in brief: as §2

[4] = tested on: Beta vulgaris ssp. vulgaris; assay: as above; conditions: for f (Beta vulgaris ssp. vulgaris) effect on crop: application to foliage, application herbicide amount 320 g/ha; for f: Application herbicide amount 320 g/ha, effect on crop
Method in brief: as §2

[5] = tested on: directly sowed Oryza sativa; assay: as above; conditions: for d (directly sowed Oryza sativa) effect on crop: application to foliage, application herbicide amount 320 g/ha; for d: Application herbicide amount 320 g/ha, effect on crop
Method in brief: as §2

Row | SMILES | a: transplanted Oryza sativa (effect on crop grade) [1] | Q (Galium spurium) herbicidal effect (Galium spurium) | L (Apera spica-venti.) herbicidal effect (Apera spica-venti.) | O (Chenopodium album) herbicidal effect (Chenopodium album) | R (Veronica persica) herbicidal effect (Veronica persica) | I (Avena fatua) herbicidal effect (Avena fatua) | G (Setaria viridis) herbicidal effect (Setaria viridis) | F (Digitaria ciliaris) herbicidal effect (Digitaria ciliaris) | H (Echinochloa crus-galli var. crus-galli) herbicidal effect [2] | J (Alopecurus myosuroides) herbicidal effect (Alopecurus myosuroides) | K (Lolium multiflorum Lam.) herbicidal effect (Lolium multiflorum Lam.) | M (Abutilon theophrasti) herbicidal effect (Abutilon theophrasti) | B: Scirpus juncoides (herbicidal effect grade) (Scirpus juncoides) | C: Monochoria vaginalis (herbicidal effect grade) (Monochoria vaginalis) | A: Echinochloa oryzicola Vasing. (herbicidal effect grade) [3] | g (Brassica campestris L.) effect on crop (Brassica campestris L.) | c (Glycine max) effect on crop (Glycine max) | b (Zea mays) effect on crop (Zea mays) | e (Triticum aestivum) effect on crop (Triticum aestivum) | f (Beta vulgaris ssp. vulgaris) effect on crop [4] | also measured
1 | COc1ccc(-c2nnc3c(C(=O)Nc4nnc(C)o4)ccc(C(F)(F)F)n23)cc1 [1-016] | 0 (Herbicidal ratio of 5% or less (almost no effect)) | 2 (Herbicidal ratio of 20% or more and less than 40%) | 0 (Herbicidal ratio of 5% or less (almost no effect)) | 5 (Herbicidal ratio of 90% or more (almost completely withered)) | 4 (Herbicidal ratio of 70% or more and less than 90%) | 1 (Herbicidal ratio of 5% or more and less than 20%) | 2 (Herbicidal ratio of 20% or more and less than 40%) | 4 (Herbicidal ratio of 70% or more and less than 90%) | 5 (Herbicidal ratio of 90% or more (almost completely withered)) | 1 (Herbicidal ratio of 5% or more and less than 20%) | 1 (Herbicidal ratio of 5% or more and less than 20%) | 5 (Herbicidal ratio of 90% or more (almost completely withered)) | 0 (Herbicidal ratio of 5% or less (almost no effect)) | 0 (Herbicidal ratio of 5% or less (almost no effect)) | 4 (Herbicidal ratio of 70% or more and less than 90%) | 3 (Herbicidal ratio of 40% or more and less than 70%) | 0 (Herbicidal ratio of 5% or less (almost no effect)) | 0 (Herbicidal ratio of 5% or less (almost no effect)) | 0 (Herbicidal ratio of 5% or less (almost no effect)) | 5 (Herbicidal ratio of 90% or more (almost completely withered)) | d (directly sowed Oryza sativa) effect on crop [5]: 0 (Herbicidal ratio of 5% or less (almost no effect))
2 | Cc1nnc(NC(=O)c2ccc(C(F)(F)F)n3c(CO)nnc23)o1 [1-067] | 0 (Herbicidal ratio of 5% or less (almost no effect)) |  |  |  |  |  |  |  |  |  |  |  | 0 (Herbicidal ratio of 5% or less (almost no effect)) | 0 (Herbicidal ratio of 5% or less (almost no effect)) | 3 (Herbicidal ratio of 40% or more and less than 70%) |  |  |  |  |  | Q (Galium spurium): 3 (Herbicidal ratio of 40% or more and less than 70%); L (Apera spica-venti.): 0 (Herbicidal ratio of 5% or less (almost no effect)); O (Chenopodium album): 5 (Herbicidal ratio of 90% or more (almost completely withered)); R (Veronica persica): 4 (Herbicidal ratio of 70% or more and less than 90%); I (Avena fatua): 1 (Herbicidal ratio of 5% or more and less than 20%); G (Setaria viridis): 4 (Herbicidal ratio of 70% or more and less than 90%); F (Digitaria ciliaris): 5 (Herbicidal ratio of 90% or more (almost completely withered)); H [2]: 5 (Herbicidal ratio of 90% or more (almost completely withered)); J (Alopecurus myosuroides): 0 (Herbicidal ratio of 5% or less (almost no effect)); K (Lolium multiflorum Lam.): 0 (Herbicidal ratio of 5% or less (almost no effect)); M (Abutilon theophrasti): 4 (Herbicidal ratio of 70% or more and less than 90%); g (Brassica campestris L.): 4 (Herbicidal ratio of 70% or more and less than 90%); c (Glycine max): 0 (Herbicidal ratio of 5% or less (almost no effect)); b (Zea mays): 2 (Herbicidal ratio of 20% or more and less than 40%); e (Triticum aestivum): 0 (Herbicidal ratio of 5% or less (almost no effect)); f [4]: 4 (Herbicidal ratio of 70% or more and less than 90%); d [5]: 3 (Herbicidal ratio of 40% or more and less than 70%)
3 | Cc1nnc(NC(=O)c2ccc(C(F)(F)F)n3c(-c4cncs4)nnc23)o1 [1-058] | 4 (Herbicidal ratio of 70% or more and less than 90%) |  |  |  |  |  |  |  |  |  |  |  | 5 (Herbicidal ratio of 90% or more (almost completely withered)) | 4 (Herbicidal ratio of 70% or more and less than 90%) | 5 (Herbicidal ratio of 90% or more (almost completely withered)) |  |  |  |  |  | Q (Galium spurium): 2 (Herbicidal ratio of 20% or more and less than 40%); L (Apera spica-venti.): 2 (Herbicidal ratio of 20% or more and less than 40%); O (Chenopodium album): 5 (Herbicidal ratio of 90% or more (almost completely withered)); R (Veronica persica): 5 (Herbicidal ratio of 90% or more (almost completely withered)); I (Avena fatua): 3 (Herbicidal ratio of 40% or more and less than 70%); G (Setaria viridis): 5 (Herbicidal ratio of 90% or more (almost completely withered)); F (Digitaria ciliaris): 5 (Herbicidal ratio of 90% or more (almost completely withered)); H [2]: 5 (Herbicidal ratio of 90% or more (almost completely withered)); J (Alopecurus myosuroides): 3 (Herbicidal ratio of 40% or more and less than 70%); K (Lolium multiflorum Lam.): 3 (Herbicidal ratio of 40% or more and less than 70%); M (Abutilon theophrasti): 5 (Herbicidal ratio of 90% or more (almost completely withered)); g (Brassica campestris L.): 4 (Herbicidal ratio of 70% or more and less than 90%); c (Glycine max): 4 (Herbicidal ratio of 70% or more and less than 90%); b (Zea mays): 5 (Herbicidal ratio of 90% or more (almost completely withered)); e (Triticum aestivum): 1 (Herbicidal ratio of 5% or more and less than 20%); f [4]: 5 (Herbicidal ratio of 90% or more (almost completely withered)); d [5]: 4 (Herbicidal ratio of 70% or more and less than 90%)
4 | Cc1nnc(NC(=O)c2ccc(C(F)(F)F)n3c([S+]([O-])C(C)C)nnc23)o1 (stereo not drawn) [1-035] | 2 (Herbicidal ratio of 20% or more and less than 40%) | 2 (Herbicidal ratio of 20% or more and less than 40%) | 3 (Herbicidal ratio of 40% or more and less than 70%) | 5 (Herbicidal ratio of 90% or more (almost completely withered)) | 5 (Herbicidal ratio of 90% or more (almost completely withered)) | 2 (Herbicidal ratio of 20% or more and less than 40%) | 5 (Herbicidal ratio of 90% or more (almost completely withered)) | 5 (Herbicidal ratio of 90% or more (almost completely withered)) | 5 (Herbicidal ratio of 90% or more (almost completely withered)) | 2 (Herbicidal ratio of 20% or more and less than 40%) | 2 (Herbicidal ratio of 20% or more and less than 40%) | 5 (Herbicidal ratio of 90% or more (almost completely withered)) | 4 (Herbicidal ratio of 70% or more and less than 90%) | 4 (Herbicidal ratio of 70% or more and less than 90%) | 5 (Herbicidal ratio of 90% or more (almost completely withered)) | 3 (Herbicidal ratio of 40% or more and less than 70%) | 3 (Herbicidal ratio of 40% or more and less than 70%) | 4 (Herbicidal ratio of 70% or more and less than 90%) | 2 (Herbicidal ratio of 20% or more and less than 40%) | 5 (Herbicidal ratio of 90% or more (almost completely withered)) | d (directly sowed Oryza sativa) effect on crop [5]: 4 (Herbicidal ratio of 70% or more and less than 90%)

From patent publication US9708314B2, “Heterocyclic amide compound” (NISSAN CHEMICAL INDUSTRIES, LTD., priority 2013, dated 2017)
